Publication PMC3807845 (The Journal of Physical Chemistry. B, 2013)
“And” between values parts separate entries of the source, which are not always exact repeats. Equal entries are not always repeated. Where two headings read alike, the source gives them in different places. Ends that are not written are not given here. * marks the point of attachment. FITC = O=C1OC2(c3ccc(O)cc3Oc3cc(O)ccc32)c2ccc(NC(=S)*)cc21

Tests used:
[1] = Circular dichroism, secondary structure; assay type: physicochemical; conditions: CD
Description: Circular dichroism (CD) scans were performed with an Applied Photophysics Chirascan, in cuvettes of 1 or 0.2 mm path length. In mixing experiments, individual solutions of FITC-cMyb and KIX in pH 7.4 100 mM sodium phosphate (0.05% tween-20) were prepared, and aliquots removed for mixing in a 1:1 ratio. Spectra were obtained for all three solutions and buffer subtracted. The expected spectrum in the absence of protein interaction was calculated as the average of the two spectra for the individual protein solutions. Helical content for FITC-cMyb alone was variously estimated as 28, 30, and 37% using the methods of Perez-Iratxeta et al.,[19] Morriset et al.,[20] and Chen et al.,[21] respectively.

KIX [2] = conditions: pH 7, 27 °C; read-out: dissociation constant of unlabeled cMyb by ITC; cited from earlier work
Source text: Second, the peptide was still observed to bind to KIX protein. On mixing FITC-cMyb with KIX, a reliable increase in the an ...

[3] = system: pseudo-wild-type of KIX with a single point tryptophan mutation in the binding site (and an attached his-tag); conditions: cited from earlier work
Source text: Association kinetics for this complex have recently been reported by Gianni et al., for a pseudo-wild-type of KIX with a single point tryptophan mutation in the binding site (and an attached his-tag).[46] […] After correction for the expected number of molecule collisions, the rate is still temperature dependent (Figure 3), which indicates the presence of an activation barrier that slows the association process. We stop short of interpreting the gradient of this plot (10.9 ± 0.7 kcal/mol) as the enthalpic barrier for folding. First, from CD denaturation studies (Figure S4, Supporting Information), it is clear that even over this narrow range of temperature there are conformatio ...

KIX [4] = conditions: NMR structure of the complex; cited from earlier work
Source text: We confirmed this increase in helicity on binding by comparing CD measurements of the individual components and mixtures ...

[5] = cited from earlier work
Description: The charge on KIX and cMyb at pH 7.4 was estimated using average pKa values reported for amino acids in globular proteins and model peptides.[54] The charge for FITC-cMyb was corrected to account for N-terminal addition of FITC. At pH 7.3–7.4 and 25 °C, fluoroscein exists predominantly as a dianion (∼90%), with some anion (∼10%), the equilibrium between the two species being described by a protolytic constant of 6.43.[27]

KIX domain of mouse CBP [6] = molecular target: T1, KIX domain of mouse CBP (Mus musculus, UniProt P45481); assay: Stopped-flow anisotropy kinetics, temperature dependence; assay type: binding
T1 construct: KIX domain of mouse CBP (Uniprot 45481, residues 586–672); hexahistidine tag with thrombin cleavage site (N, cleaved yes); made in house; host or cells: Escherichia coli C41 (DE3)
Description: The synthetic gene for the KIX domain of mouse CBP (Uniprot 45481, residues 586–672) was obtained from Genscript. The gene was inserted into a modified version of the pRSET A vector that encodes an N-terminal hexahistidine tag with a thrombin cleavage site between the tag and the protein. Protein expression was carried out in Escherichia coli C41 (DE3) grown in 2xTY media at 37 °C. Expression was induced once the cells reached an optical density of 0.4–0.6 AU at 600 nm, by adding IPTG to a final concentration of 0.1 mM and reducing the temperature to 18 °C. The cells were grown overnight and harvested by centrifugation. […] Bound protein was eluted with 250 mM imidazole, and the his-tag cleaved by overnight incubation with thrombin at room temperature. The protein was further purified by gel filtration using a Superdex G75 column in pH 7.4 100 mM sodium phosphate buffer. For ionic strength studies, KIX protein was buffer exchanged and stored in ddH2O. The concentration of KIX stocks was determined using an extinction coefficient of 12 009 M^–1 cm^–1 at 280 nm obtained by the method of Gill von Hippel.[18]
N-terminally labeled FITC-cMyb peptide (Uniprot P06876, residues 291–315) was purchased from Biomatik. 1 mg aliquots were dissolved at 1–2 mg/mL in ddH2O as required. The stock concentration was determined from the absorbance at 493 nm of a 20-fold dilution into biophysical buffer, using an extinction coefficient of 75 000 M^–1 cm^–1. Sodium phosphate, MOPS, and sodium chloride were purchased from Sigma. […]
(§1) Association kinetics were monitored by following the change in anisotropy of FITC-cMyb on binding using a SX20 stopped-flow spectrometer (Applied Photophysics) with an FP1 fluorescence polarization accessory. […] Anisotropy values reported from stopped-flow have not been corrected for background fluorescence.
In temperature studies, KIX solutions of various concentrations were mixed 1:1 with 1 μM FITC-cMyb. […] Dissociation rate constants (koff) were calculated from the relation koff = Kdkon, which is appropriate for two-state bimolecular reactions (see Results). […]

KIX domain of mouse CBP [7] = molecular target: T1, KIX domain of mouse CBP; assay: Stopped-flow anisotropy kinetics, ionic strength dependence (MOPS); assay type: binding
Description: Two separate buffer types were utilized in these studies. First, 100 mM sodium phosphate buffer, pH 7.4, the pH of which is relatively insensitive to temperature changes, was used for the temperature studies. Second, 20 mM MOPS (pH 7.30 ± 0.02 at 10 °C) with a range of sodium chloride concentrations was used in ionic strength studies. MOPS buffers in the same range as phosphate but has a lower ionic strength because of its lower valency, enabling a larger range of ionic strengths to be investigated. We observed that the rate of association was slightly lower in phosphate buffer, considering our estimates of its ionic strength. In addition, 0.05% tween-20 was included in all biophysical buffers to avoid nonspecific interactions with plastic-ware.
In preparing solutions for kinetic assays, dilutions of KIX and FITC-cMyb stocks were weighed, so that accurate concentrations (accounting for solution density) were obtained.
as §1, with “fluorescence. […]” for “fluorescence.”
The variation in association rate constant with ionic strength (I) was modeled with a Debye–Huckel-like approximation that has been determined empirically (eq 4).[24] […]

CBP KIX (Mus musculus) = CBP KIX (Mus musculus) (UniProt P45481); conditions: cited from earlier work
[8] = molecular target: KIX domain of mouse CBP (residues 586-672) (mouse, UniProt P45481 586-672); assay: fluorescence polarisation; equilibrium anisotropy; 1 uM FITC-cMyb incubated 1 h with varying concentrations of KIX; 100 mM sodium phosphate pH 7.4, 0.05% tween-20; 25 °C; fit to eq 2; conditions: both partners purified
barnase = conditions: with barnase, cited from earlier work
Source text: Although these rates are fast, they are nothing remarkable in themselves. […] The most famous example of such rate enhancement is for the two folded proteins barnase and barstar, which have been described as “ultrafast” associating proteins. At low ionic strengths, the reported kon is over 5 × 10^9 M^–1 s^–1; however, extrapolation to infinite ionic strength to obtain an esti ...

T1 sequence (P45481 586-672): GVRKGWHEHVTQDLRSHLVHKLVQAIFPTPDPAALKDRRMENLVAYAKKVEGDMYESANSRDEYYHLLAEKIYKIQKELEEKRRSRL
Chain of CBP KIX (Mus musculus) (P45481 583-668): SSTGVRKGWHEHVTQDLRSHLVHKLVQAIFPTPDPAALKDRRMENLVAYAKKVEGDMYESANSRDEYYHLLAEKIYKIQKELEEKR
Chain of KIX domain of mouse CBP (residues 586-672) (P45481 586-672): as the sequence (P45481 586-672) above

Molecule: cMyb: 25 amino acid peptide from the TAD of cMyb, unlabeled
- residual α-helical content, unbound state (summary) ([1]; free peptide, pH 7.4 100 mM sodium phosphate): around 30%
- Kd (KIX [2]): 10 µM
- fold lower binding affinity than reported here ([3]; 25 °C, relatively similar buffer conditions, complex with pseudo-wild-type KIX): 3 fold
- decrease of dissociation rate on partial helix stabilization by TFE ([3]; TFE): around 5 fold
- increase of association rate on partial helix stabilization by TFE ([3]; TFE): around 1.4 fold
- kon, Gianni et al. ([3]; compared at 25 °C, pseudo-wild-type his-tagged KIX): (2.5 ± 0.1) × 10^7 M^–1 s^–1
- amino acids in a helix in the bound form (KIX [4]): 70%

Molecule: O=C1OC2(c3ccc(O)cc3Oc3cc(O)ccc32)c2ccccc21 [fluoroscein]
- protolytic constant (dianion/anion) ([5]; 25 °C): 6.43
- fraction as anion ([5]; pH 7.3–7.4, 25 °C): ~10%
- fraction as dianion ([5]; pH 7.3–7.4, 25 °C): ~90%

Molecule: CC[C@H](C)[C@H](NC(=O)[C@H](CCCNC(=N)N)NC(=O)[C@H](CCCCN)NC(=O)[C@H](CCC(=O)O)NC(=O)[C@H](CCCCN)NC(=S)Nc1ccc2c(c1)C(=O)OC21c2ccc(O)cc2Oc2cc(O)ccc21)C(=O)N[C@@H](CCCCN)C(=O)N[C@@H](CCC(=O)O)C(=O)N[C@@H](CC(C)C)C(=O)N[C@@H](CCC(=O)O)C(=O)N[C@@H](CC(C)C)C(=O)N[C@@H](CC(C)C)C(=O)N[C@@H](CC(C)C)C(=O)N[C@@H](CCSC)C(=O)N[C@@H](CO)C(=O)N[C@H](C(=O)N[C@@H](CCC(=O)O)C(=O)N[C@@H](CC(N)=O)C(=O)N[C@@H](CCC(=O)O)C(=O)N[C@@H](CC(C)C)C(=O)N[C@@H](CCCCN)C(=O)NCC(=O)N[C@@H](CCC(N)=O)C(=O)N[C@@H](CCC(N)=O)C(=O)N[C@@H](C)C(=O)N[C@@H](CC(C)C)C(=O)O)[C@@H](C)O [FITC-cMyb]
- koff (KIX domain of mouse CBP [6]; 25 °C, extrapolated from temperature dependence, pH 7.4 100 mM sodium phosphate, read-out: koff extrapolated to 25 °C): 230 ± 20 s⁻¹
- kon (KIX domain of mouse CBP [6]; pH 7.4, read-out: kon extrapolated to 25 °C): ~2.2e+07 M⁻¹ s⁻¹
- koff (KIX domain of mouse CBP [6]; physiological conditions, expected, read-out: dissociation rate under physiological conditions): > 300 s⁻¹
- kon (KIX domain of mouse CBP [7]; 25 °C, from 10 °C basal rate and temperature dependence study, read-out: basal association rate constant estimated at 25 °C): 2.1e+07 M⁻¹ s⁻¹
- kon (KIX domain of mouse CBP [7]; pH 7.3, 10 °C, 20 mM MOPS pH 7.30, extrapolated with Debye–Huckel-like approximation (eq 4), read-out: basal association rate constant (infinite ionic strength)): 7.7e+06 M⁻¹ s⁻¹

Molecule: KIX: KIX domain of mouse CBP (Uniprot 45481, residues 586–672)
- reversibility of thermal denaturation / aggregation ([1]; 10 to 80 °C, indicative of aggregation at higher temperatures): Apparent nonreversibility
- secondary structure over ionic strength range ([1]; MOPS buffers, 10 to 750 mM ionic strength, 10 °C): no significant change in the secondary structure
- effect of temperature on helical content ([1]; thermal denaturation, pH 7.4 100 mM sodium phosphate, 10 to 80 °C): Helical content was reduced on increasing temperature

Molecule: cMyb transactivation domain (from UniProt P06876)
- Kd (CBP KIX (Mus musculus)): 10 µM and 12.5 µM

Molecule: {FITC}-KEKRIKELELLLMSTENELKGQQAL (peptide, UniProt P06876 291-315, looked up)
- Kd [8]: 10.5 ± 0.7 µM

B1: barstar: two folded proteins barnase and barstar, described as ultrafast associating proteins (protein, UniProt P11540 2-90, looked up)
Barstar: KKAVINGEQIRSISDLHQTLKKELALPEYYGENLDALWDCLTGWVEYPLVLEWRQFEQSKQLTENGAESVLQVFREAKAEGCDITIILS
- basal kon, infinite ionic strength (barnase; extrapolated to infinite ionic strength): around 10^5 M^–1 s^–1
- kon at low ionic strength (barnase; low ionic strengths): over 5 × 10^9 M^–1 s^–1
